Values of other authors as cited in patent US20140023701A1, “Method and Composition for Ameliorating the Effects tor a Subject Exposed to Radiation or Other Sources of Oxidative Stress” (priority 2011, published 2014).
Read-outs that look alike come from different tables or passages of the source.

What was measured:
Human [1] = system: Human
Human [2] = system: Human; remark: listed apart in the source
[3] = no observed adverse event level, most sensitive subgroup
[4] = tolerable upper intake level, daily intake

| Compound | Human NOAEL (Human [1]; [3]) | Human UL (19-70 yo group) (Human [2]) | Human UL (19-70 yo group) (Human [2]; [4]) | Human NOAEL (Human [1]; human) |
| --- | --- | --- | --- | --- |
| O=C(O)CCCC[C@@H]1SC[C@@H]2NC(=O)N[C@@H]21 [Biotin] | 2.5 mg |  |  |  |
| [Ca] [Calcium] | 1500 mg | 2500 mg |  |  |
| Nc1nc2ncc(CNc3ccc(C(=O)N[C@@H](CCC(=O)O)C(=O)O)cc3)nc2c(=O)[nH]1 [Folate, folic acid] | 1 mg |  |  |  |
| [Mg] [Magnesium] | 700 mg |  | 350 mg |  |
| [Mn+2] [Manganese] | 10 mg | 11 mg |  |  |
| [Mo] [Molybdenum] | 0.35 mg |  | 2 mg |  |
| O=C(O)c1cccnc1 [Niacin, inositol hexanicotinate] |  |  | 35 mg |  |
| CC(C)(CO)[C@@H](O)C(=O)NCCC(=O)O [Pantothenic acid, d-calcium pantothenate] | 1000 mg |  |  |  |
| Cc1ncc(CO)c(CO)c1O.Cl [Vitamin B6, pyridoxine hydrochloride] |  | 100 mg |  | 200 mg |
| O=C1O[C@H]([C@@H](O)CO)C(O)=C1O [Vitamin C, ascorbic acid] | >1000 mg |  |  |  |
| C=C1CC[C@H](O)C/C1=C/C=C1\CCC[C@]2(C)[C@@H]([C@H](C)CCCC(C)C)CC[C@@H]12 [Vitamin D, cholecalciferol] | 800 IU |  |  |  |
| CC1=C(C/C=C(\C)CCC[C@H](C)CCC[C@H](C)CCCC(C)C)C(=O)c2ccccc2C1=O [Vitamin K, phytonadione] |  |  |  | 0.03 mg |
| Copper | 9 mg | 10 mg |  |  |
| Vitamin A |  | 10,000 U |  | 10,000 IU |
| Vitamin E |  |  | 1490 IU | 1200 IU |
| Zinc | 30 mg | 40 mg |  |  |
| chromium polynicotinate | 1 mg |  |  |  |
| cyanocobalamin [Vitamin B12] | 3 mg |  |  |  |
